# Data from article PMC8672774, “Discovery of cell active macrocyclic peptides with on-target inhibition of KRAS signaling” (Chemical Science, 2021).
# Numbered stars: 1 amine (or outer) side, 2 acyl side, 3 side chain; on linkers, the order of the positions; unused ones are H or OH. Bridge positions count the residues as written; N and C are the ends. Square brackets hold non-standard residues; d marks the D form. Peptide text beside a SMILES is read from it. CH2 = C([*:1])[*:2]
# Key:
# GDP-loaded KRAS^G12D = target: T1, GDP-loaded KRAS^G12D (Homo sapiens, UniProt P01116, G12D); assay: TR-FRET competitive binding assay using KRAS G12D loaded with GDP; conditions: competition with 500 nM FAM-labeled tracer; relative binding, EC50 right-shifted compared to KD
# T1 construct: (AAs 1 to 169 plus a 4xGly motif appended to the N-; His-SUMO (N, cleaved yes); made in house; host or cells: E. coli Rosetta 2 (DE3)
# [1] = tested on: pERK in KRAS^G12C, KRAS^G12V and KRAS^G12D cancer lines; assay: Cellular phospho-ERK assay in panel of KRAS mutant cancer lines; type: cell-based
# Experimental: For the latter, this included HEK293 cells (Fig. 4C), a cell line that has no dependency on RAS for cell proliferation.[21]
# Ratio of pERK vs total ERK in
# Penicillin/Streptomycin (Gibco 15140-122).
# A375 cells were seeded at a
# membranes were measured by LDH release assay.
# according to manufacturer’s protocol.
# [2] = tested on: AsPC-1, SK-CO-1, NCI-H358 and NCI-H2122 cells; assay: CellTiter-Glo 2.0 cell viability assay, KRAS mutant lines; type: cell-based; conditions: AsPC-1, SK-CO-1, NCI-H358, NCI-H2122; 120 h
# Experimental: (§1) Prism software (GraphPad, San Diego, CA).
# (§2) according to the manufacturer’s protoco l.
# (§3) time of 0.15 second per well.
# (§4) AMG510 was prepared internally from
# (§5) Cells were cultured and seeded
# A375 cells = assay: CellTiter-Glo 2.0 cell viability assay, A375; type: cell-based; conditions: 120 h
# Experimental: as §1, §2, §3, §4, §5
# [3] = tested on: extended cell panel incl. HEK293 cells; assay: CellTiter-Glo cell viability assay (extended cell panel); type: cell-based
# Excerpt: Table S2: Cell culture conditions and seeding densities for 5-day CellTiter- Glo® cell viability assay on extended 1 6 cell panel.
# Cell Line Vendor Catalog Description Complete g rowth m e d i um Seeding density […]
# Capan-1 ATCC HTB-79 pancreas, adenocarcinoma IMDM+20%FBS 7 00
# CFPAC-1 ATCC CRL-19 18 pancreas, ductal adenocarcinoma; cystic fibrosis IMDM+10%FBS 6 00 […]
# MiaPaCa-2 ATCC CRL-14 20 pancreas, pancreatic Carcinoma DMEM+10%FBS 6 00 NCI-H358 ATCC CRL-58 07 lung, non-small cell lung cancer,bronchioalveolar RPMI1640+10%FBS […]
# Panc 10.05 ATCC CRL-25 47 pancreas, adenocarcinoma RPMI1640 + 20 Units/ml human […]
# SK-CO-1 ATCC HTB-39 colon, colorectal adenocarcinoma EMEM+10%FBS 3 00 […]
# SW4 80 ATCC CCL-22 8 colon, adenocarcinoma Leibovitz's L-15
# Prism software (GraphPad, San Diego, CA). […]
# according to the manufacturer’s protoco l. […]
# as §3, §4
# Cells were cultured and seeded […]
# the manufacturer’s protocol. […]
# integration time of 0.1 second per well. […]
# indicated peptides the next day.
# [4] = tested on: pERK and pAKT in AsPC-1 cells; assay: Western blot of KRAS signaling (pERK, pAKT) in AsPC-1 cells; type: cell-based; conditions: 1 hour and 16 hour time-points
# [5] = tested on: MAPK and PI3K signaling in A375 cells (BRAF^V600E); assay: Western blot of MAPK and PI3K signaling in A375 cells; type: cell-based
# [6] = tested on: MAPK and PI3K signaling in SK-MEL-28 cells (BRAF^V600E); assay: Western blot of MAPK and PI3K signaling in SK-MEL-28 cells; type: cell-based
# EGF receptor activation = assay: Western blot of EGF receptor activation in AsPC-1 cells; type: cell-based
# [7] = tested on: TNFα-stimulated NFκB signaling; assay: Western blot of TNFα-stimulated NFκB signaling in AsPC-1 cells; type: cell-based
# rat mast cells = assay: Ex vivo rat mast cell degranulation and histamine release assay
# [8] = tested on: A375 and SK-MEL-28 cells vs AsPC-1 cells; assay: Live-cell fluorescence imaging of FAM-labelled peptides; type: cell-based; conditions: A375 and SK-MEL-28 compared to AsPC-1
# [9] = tested on: pERK in NCI-H358 (heterozygous KRAS^G12C) cells; assay: Cellular phospho-ERK assay in NCI-H358 cells with and without EGF; conditions: 20 nM EGF stimulation
smiles,measurement,setting,value
CC[C@H](C)[C@@H]1NC(=O)[C@H](Cc2ccc(O)cc2)NC(=O)[C@H](C)NC(=O)[C@@H]2CCCN2C(=O)[C@H](NC(=O)[C@H](CCCNC(=N)N)NC(=O)[C@H](CCCNC(=N)N)NC(C)=O)CSCSC[C@@H](C(=O)N[C@@H](CCCNC(=N)N)C(=O)N[C@@H](CCCNC(=N)N)C(N)=O)NC(=O)[C@H](C(C)C)NC(=O)[C@@H]2CCCN2C(=O)[C@H](CC(=O)O)NC(=O)[C@H](Cc2ccc(O)cc2)NC(=O)[C@H](CO)NC1=O [Compound 6] (Ac-RR[dC]PAYISYDPVCRR-NH2; linker 3-13 via CH2),EC50,GDP-loaded KRAS^G12D,> 48.1 µM
CC[C@H](C)[C@@H]1NC(=O)[C@H](Cc2ccc(O)cc2)NC(=O)[C@H](CC(C)C)NC(=O)[C@@H]2CCCN2C(=O)[C@H](NC(=O)[C@@H](CCCNC(=N)N)NC(=O)[C@@H](CCCNC(=N)N)NC(=O)[C@@H](CCCNC(=N)N)NC(=O)[C@@H](CCCNC(=N)N)NC(=O)[C@H](CCCCN=[N+]=[N-])NC(C)=O)CSCSC[C@@H](C(=O)N[C@H](CCCNC(=N)N)C(=O)N[C@H](CCCNC(=N)N)C(=O)N[C@H](CCCNC(=N)N)C(=O)N[C@H](CCCNC(=N)N)C(N)=O)NC(=O)[C@H](C(C)C)NC(=O)[C@@H]2CCCN2C(=O)[C@H](CC(=O)O)NC(=O)[C@H](Cc2ccc(O)cc2)NC(=O)[C@](C)(CO)NC1=O [MP-3995],pERK inhibition across KRAS mutant cancer lines,[1],low micromolar range
same,inhibition of cell proliferation in KRAS mutant lines,[2],inhibitory effects on cell proliferation
same,cell growth inhibition in A375,A375 cells,lack of cell growth inhibition
same,sensitivity of HEK293 cell proliferation,"[3]; HEK293, no dependency on RAS",insensitive
same,number of KRAS mutant cell lines with inhibited proliferation,"[3]; extended panel, 120 h",8 out of 13
CC[C@H](C)[C@@H]1NC(=O)[C@H](Cc2ccc(O)cc2)NC(=O)[C@H](CC(C)C)NC(=O)[C@@H]2CCCN2C(=O)[C@H](NC(=O)[C@@H](CCCNC(=N)N)NC(=O)[C@@H](CCCNC(=N)N)NC(=O)[C@@H](CCCNC(=N)N)NC(=O)[C@@H](CCCNC(=N)N)NC(=O)[C@H](CCCCN=[N+]=[N-])NC(C)=O)CSCSC[C@@H](C(=O)N[C@H](CCCNC(=N)N)C(=O)N[C@H](CCCNC(=N)N)C(=O)N[C@H](CCCNC(=N)N)C(=O)N[C@H](CCCNC(=N)N)C(N)=O)NC(=O)[C@H](C(C)C)NC(=O)[C@@H]2CCCN2C(=O)[C@H](CC(=O)O)NC(=O)[C@H](Cc2ccc(O)cc2)NC(=O)[C@H](CO)NC1=O [MP-4090],"inhibition of KRAS signaling (pERK, pAKT) by Western blot",[4],display cell-based inhibition
same,inhibition of MAPK signaling in A375,[5],inactive
same,inhibition of MAPK signaling in SK-MEL-28,[6],inactive
same,effect on upstream EGF receptor activation,EGF receptor activation,no effect
same,effect on TNFα-stimulated NFκB signaling,[7],no effect
same,"activation of mast cell degranulation (histamine release), in words","rat mast cells; ex vivo, rat mast cells",highly potent activators of MCD
same,rMCD histamine release threshold,"rat mast cells; lowest concentration at which histamine release was observed, rat peritoneal mast cells, 30 min",≥0.14 µM
"CC[C@@H](C)[C@H]1NC(=O)[C@@H](Cc2ccc(O)cc2)NC(=O)[C@@H](CC(C)C)NC(=O)[C@H]2CCCN2C(=O)[C@H](NC(=O)[C@@H](CCCNC(=N)N)NC(=O)[C@@H](CCCNC(=N)N)NC(=O)[C@@H](CCCNC(=N)N)NC(=O)[C@@H](CCCNC(=N)N)NC(C)=O)CSCSC[C@H](C(=O)N[C@H](CCCNC(=N)N)C(=O)N[C@H](CCCNC(=N)N)C(=O)N[C@H](CCCNC(=N)N)C(=O)N[C@H](CCCNC(=N)N)C(N)=O)NC(=O)[C@@H](C(C)C)NC(=O)[C@H]2CCCN2C(=O)[C@@H](CC(=O)O)NC(=O)[C@@H](Cc2ccc(O)cc2)NC(=O)[C@@H](CO)NC1=O [MP-4956, Ac-rrrr-cyclo(c(methylene)plyisydpvc)-rrrr-NH2]","inhibition of KRAS signaling (pERK, pAKT) by Western blot",[4],showed no activity
same,inhibition of cell proliferation in KRAS mutant lines,[2],minimal inhibitory effects
CC[C@H](C)[C@@H]1NC(=O)[C@H](Cc2ccc(O)cc2)NC(=O)[C@H](CC(C)C)NC(=O)[C@@H]2CCCN2C(=O)[C@H](NC(=O)[C@@H](CCCNC(=N)N)NC(=O)[C@@H](CCCNC(=N)N)NC(=O)[C@@H](CCCNC(=N)N)NC(=O)[C@@H](CCCNC(=N)N)NC(=O)c2ccc3c(c2)C(=O)OC32c3ccc(O)cc3Oc3cc(O)ccc32)CSCSC[C@@H](C(=O)N[C@H](CCCNC(=N)N)C(=O)N[C@H](CCCNC(=N)N)C(=O)N[C@H](CCCNC(=N)N)C(=O)N[C@H](CCCNC(=N)N)C(N)=O)NC(=O)[C@H](C(C)C)NC(=O)[C@@H]2CCCN2C(=O)[C@H](CC(=O)O)NC(=O)[C@H](Cc2ccc(O)cc2)NC(=O)[C@H](CO)NC1=O [MP-8996],cell entry of FAM-labeled peptide in BRAF mutant cells,[8],roughly equivalent amounts compared to AsPC-1 cells
C=CC(=O)N1CCN(c2nc(OC[C@@H]3CCCN3C)nc3c2CCN(c2cccc4cccc(C)c24)C3)C[C@@H]1CC#N [MRTX-1257],"potency shift in pERK in the presence of EGF, NCI-H358",[9],2 fold
